Reference: US20140309184A1, “METHODS AND COMPOSITIONS FOR THE TREATMENT OF OVARIAN CANCER” (UNIVERSITY OF SOUTH ALABAMA, priority 2011, published 2014)

Tests used:
SKOV3 cells = assay: MTS cell survival with BMS-833923 plus chemotherapy, Calcusyn combination index; assay type: cell-based
Procedure: An MTS in vitro assay was performed using chemotherapy agents commonly used for ovarian cancer (carboplatin, paclitaxel, gemcitabine, topotecan and liposomal doxorubicin) with or without BMS-833923. Ovarian cancer cells ES2, SKOV3, OV90 and TOV112D were seeded at a density of 4,000 cells/well in 96-well tissue culture plates. The following day, fresh medium was added to each well and treated with IC50 concentrations of BMS-833923 as well as the aforementioned chemotherapies and kept at 37° C. in a humidified 5% CO2 atmosphere. Every 24 hr, 20 μl/well of MTS reagent were added in 96 well plates and stored in 37° C. incubator for about 3 hr followed by absorbance reading at 490 nm. The assay was carried out up to 72 hrs at various concentrations described herein.
With a cross-diagonal multidrug treatment design, the combination index (CI) was calculated to determine mathematical synergy using the median effect method per Calcusyn software (Biosoft, Ferguson, Mo.). This software utilizes multiple drug dose-effect calculations using the Median Effect methods (Chou T. C., et al., Trends Pharmacol. Sci. 4, 450-454). […] The fraction of cells affected (Fa) by carboplatin and BMS-833923 was used to calculate dose response curves and the CI. Statistically Calcusyn quantifies phenomena such as synergism vs. additive effects as well as inhibition (antagonism). Calcusyn software defines synergy as a CI value<1 with the extent of synergism stratified as follows: Possible Synergy: 1.0-0.91; Moderate Synergy: […]; and Clear Synergy: 0.7-0.3. A CI=1 may be indicative of additivity; a CI>1 may be indicative of antagonism.
Combination indices were calculated to determine mathematical synergy using the median effect method per Calcusyn software (Biosoft, Ferguson, Mo.) as described above. Monolayers of SKOV3 cells were contacted with various chemotherapeutic agents, and BMS-833923 in combination with various chemotherapeutic agents. The chemotherapeutic agents included Carboplatin, Taxol™, Gemzar™, Topotecan (Hycamtim™), and Doxil™. The percentage survival of the contacted SKOV3 cells was measured over 72 hours. Synergistic effects were calculated statistically using Calcusyn™ Software. A combination index (CI) less than 1 indicates synergy; a CI equal to 1 indicates additivity; a CI greater than 1 indicated antagonism.
Combination indices were calculated to determine mathematical synergy using the median effect method per Calcusyn software (Biosoft, Ferguson, Mo.) as described above. […] Per prior definitions this represents Clear Synergy defined as CI<0.7. This level of synergy would result in a 2- to 14-fold reduction of carboplatin dose required with the addition of BMS-833923. (Table 5 and FIG. 9).
The dose reduction index (DRI) was determined for experimental values using the Calcusyn software package, with the relative CI and the fraction affected to determine the relative reduction in a dose to achieve similar effects with a single agent (Table 6).

A2780 cells = assay: Carboplatin IC50 in platinum sensitive cell line; assay type: cell-based; conditions: read-out: IC50 dose of carboplatin
Procedure: (§1) Considering the synergy described above and that the Hedgehog pathway is associated with cancer stem cell properties. In the effect of BMS-833923 plus carboplatin in two isogenic ovarian cancer cell lines specifically designed to evaluate platinum resistance mechanisms: A2780 (platinum sensitive) & A2780/CP70 (platinum resistant). Each cell line was evaluated to determine the IC50 dose of carboplatin to ensure a discernable difference in platinum treatment could be determined (FIG. 11A). The A2780/CP70 cell line required a 4-fold increase in carboplatin to reach IC50 (A2780/CP70=400 μM; A2780=100 μM). […] (FIG. 11B and FIG. 11C).

A2780/CP70 cells = assay: Carboplatin IC50 with and without BMS-833923 in platinum resistant cell line; assay type: cell-based
Procedure: as §1

A2780 xenografts = assay: Xenograft tumor growth, carboplatin-sensitive model; assay type: in vivo; conditions: SCID mice; BMS-833923 100 mg/kg i.p. daily, Carboplatin 40 mg/kg i.p. twice a week, two weeks
Procedure: (§2) Female SCID mice 6-8 weeks old were inoculated i.p. with 5×10^6 A2780 or A2780/CP70 cells suspended in 200 μL PBS (PH 7.4). Seven days later when the tumor reached a size of greater than 150 mm^3, the mice were randomly divided into 4 groups (8 mice per group) as follows: (1) PBS-treated control; (2) BMS-833923 alone (100 mg/kg, i.p. daily, two weeks); (3) Carboplatin alone (40 mg/kg, i.p. twice a week, two weeks); (4) Combination of BMS-833923 and Carboplatin treatment. Mice were weighed and tumor diameters were measured with calipers every 2-3 days for 20 days. The tumor volumes (mm^3) were calculated as (W^2×L)/2, where W and L are the minor and major diameters (in millimeters), respectively.
(§3) Xenograft experiments were performed as described above. Carboplatin was dosed days 7, 11, 14, 18; BMS-833923 was dosed days 8 through 20. The experiment was terminated due to excessive tumor size in vehicle and BMS-833923 treatment groups.

CP2780 xenografts = assay: Xenograft tumor growth, carboplatin-resistant model; assay type: in vivo; conditions: SCID mice; BMS-833923 100 mg/kg i.p. daily, Carboplatin 40 mg/kg i.p. twice a week, two weeks
Procedure: as §2, §3
The CP2780 was derived from the A2780 Ovarian tumor xenograft model by selection for resistance to cisplatin. The CP2780 growth appeared to be more robust than observed for parental A2780 model (FIG. 12B). Average tumor volume doubling time for CP2780 was estimated at 2 days. Doubling time for parental A2780 tumor model was estimated at 3 days. […]

[1] = Percent body weight change in xenograft experiments; assay type: in vivo, SCID mice; conditions: xenograft mice; BMS-833923 100 mg/kg i.p. daily, Carboplatin 40 mg/kg i.p. twice a week
Procedure: as §2
Xenograft experiments were performed as described above. […] However, under such dosage (100 mg/kg, i.p. daily, for two weeks), treatment with BMS-833923 appeared to have little effect on the growth of A2780 or A2780/CP70 xenografts in vivo (FIG. 13). […] However, this dosage has little effect on the growth of CP2780 xenografts in vivo.

[2] = MTD for combination therapy; assay type: in vivo; conditions: BMS-833923 + carboplatin given together; previously demonstrated
From the text: Treatment with BMS-833923 appeared to have little effect on the growth of A2780 xenografts in vivo.

SHH = assay: Quantitative real time PCR in carboplatin treated SKOV3 cells; assay type: cell-based; conditions: SKOV3, various concentrations of carboplatin
Procedure: SKOV3 cells were treated with various concentrations of carboplatin and the levels of SHH, Smo, PTCH, and Gli1 determined using quantitative real time PCR. Carboplatin treatment unregulated SHH (FIG. 14).

For `N.N.O=C([O-])C1(C(=O)[O-])CCC1.[Pt+2]` [Carboplatin, carboplatin], the “Carboplatin DRI” value (SKOV3 cells; fraction affected 16.6%) was 14.869, the “Carboplatin single agent dose to achieve the fraction affected” value (SKOV3 cells; fraction affected 16.6%) was 892.1349 µM and the “Carboplatin DRI” value (SKOV3 cells; fraction affected 29.1%) was 8.06e+006. The “Carboplatin single agent dose to achieve the fraction affected” value (SKOV3 cells; fraction affected 29.1%) was 5.642e+08 µM, the “Carboplatin DRI” value (SKOV3 cells; fraction affected 38.4%) was 2.07e+010 and the “Carboplatin single agent dose to achieve the fraction affected” value (SKOV3 cells; fraction affected 38.4%) was 1.243e+12 µM. For the same molecule, the “Carboplatin DRI” value (SKOV3 cells; fraction affected 41.8%) was 2.45e+011, the “Carboplatin single agent dose to achieve the fraction affected” value (SKOV3 cells; fraction affected 41.8%) was 1.716e+13 µM and the IC50 (A2780 cells) was 100 µM. For the same molecule, the “increase in carboplatin to reach IC50, A2780/CP70 versus A2780” value (A2780/CP70 cells) was 4 fold, the IC50 (A2780/CP70 cells; A2780/CP70 (platinum resistant), read-out: IC50 dose of carboplatin) was 400 µM and the “effect on growth of A2780 xenografts in vivo” value (A2780 xenografts) was “inhibited growth”. The “effect on growth of CP2780 (A2780/CP70) xenografts in vivo” value (CP2780 xenografts) was “little effect”, the “Percent body weight change” value [1] was “Combination<Carboplatin alone<BMS-833923 alone” and the “MTD for combination therapy” value [2] was 40 mg/kg. For the same molecule, the “SHH mRNA level” value (SHH) was “unregulated”.
